Data: article PMC12435690, “KYLO-0603, a novel liver-targeting, thyroid hormone receptor-β agonist for the inhibition of MASH progression” (PLOS One, 2025)

Assays:
[1] = test system: MASH mouse models (F2 ~ 3); test: SHG/TPEF microscopy of liver fibrosis and steatosis in MASH mouse models; type: in vivo, C57BL/6J mice; conditions: for SHG fibrosis percentage / percentage of steatosis: 8 weeks; for SHG fibrosis percentage: control 4.36%; for percentage of steatosis: control 21.66%
Procedure: Scanning was conducted on a Genesis® machine, a stain-free TPE/SHG microscopic imaging device manufactured in-house by HistoIndex®, Singapore. The region of interest (ROI) is systematically partitioned into uniformly sized, termed “blocks,” each measuring of 200 μm × 200 μm. These blocks were sequentially imaged individually and in sequence in raster scan mode utilizing a 20x objective lens. Each block has a resolution of 512 × 512 pixels, or 0.4 μm per pixel. Software developed by HistoIndex and Chipmap for image analysis identifies the different lobular regions, the central vein, the confluent region, and the perisinus region. Fibrosis and steatosis in these regions were subsequently measured and quantified in the SHG and TPE images.
As a fundamental component of clinical prognosis in MASH, a precise evaluation of hepatic fibrosis is very crucial. Artificial intelligence-assisted second harmonic generation/two-photon excitation fluorescence (SHG/TPEF) microscopy technique has been introduced because the existing scoring systems are insufficient for capturing the process of hepatic fibrosis regression. This offers a consistent and very precise way to evaluate the pathological characteristics of MASH, especially the serial measurement of collagen fibers and hepatic fibrosis. In this study, we employed second harmonic generation/two-photon excited fluorescence (SHG/TPEF) microscopy integrated with digital image analysis to evaluate liver tissue sections across a larger tissue area from MASH mouse models (F2–F3). This approach enabled systematic analysis of the effects of Kylo-0603 on arresting the progression of hepatic steatosis and fibrosis of liver tissue.
Through quantitative analysis of SHG/TPEF imaging datasets, we conducted a detailed assessment of the specific impacts of varying Kylo-0603 dosages (0.1 mg/kg, 0.3 mg/kg, 1 mg/kg, 3 mg/kg, and 10 mg/kg) on fibrogenesis and steatosis in F2–F3 MASH mouse models. The key findings are systematically summarized as follows: […]

[2] = in vitro; conditions: beagle, dog, plasma
Procedure: (§2) We evaluated the metabolic stability of Kylo-0603 in the plasma of CD-1 mice, Sprague–Dawley (SD) rats, beagle dogs, cynomolgus monkeys, and humans. The plasma from the five species was mixed with Kylo-0603 (2 μM) and incubated at 37°C in a thermostatic water tank. The plasma concentrations of Kylo-0603 were monitored via LC-MS/MS at 0, 10, 30, 60, and 120 min.

[3] = 182-day long-term dosing toxicity study in Sprague-Dawley rats; type: in vivo
Procedure: (§1) To evaluate the preclinical safety profile of Kylo-0603, a novel liver-targeted thyroid hormone receptor β (TRβ) agonist with therapeutic potential, systematic toxicological assessments were conducted in both non-human primates (cynomolgus monkeys) and rodents (Sprague-Dawley rats). […] The no-observed-adverse-effect level (NOAEL) was determined to be 1.5 mg/kg/day. Collectively, these independent toxicological investigations substantiate Kylo-0603’s favorable safety, providing rigorous preclinical support for clinical advancement.

[4] = Metabolic stability in plasma (CD-1 mice)
Procedure: as §2

[5] = Metabolic stability in plasma (humans); conditions: human
Procedure: as §2

[6] = Metabolic stability in plasma (cynomolgus monkeys); conditions: cynomolgus monkey
Procedure: as §2

[7] = in vitro; conditions: CD-1, mouse, plasma
Procedure: as §2

[8] = 28-day repeated-dose toxicity study in cynomolgus monkeys; type: in vivo
Procedure: as §1

CC(=O)N[C@H]1[C@H](OCCCCCCNC(=O)CCOCC(COCCC(=O)NCCCCCCO[C@@H]2O[C@H](CO)[C@H](O)[C@H](O)[C@H]2NC(C)=O)(COCCC(=O)NCCCCCCO[C@@H]2O[C@H](CO)[C@H](O)[C@H](O)[C@H]2NC(C)=O)NC(=O)CCCCCNC(=O)COc2cc(C)c(Cc3ccc(O)c(C(C)C)c3)c(C)c2)O[C@H](CO)[C@H](O)[C@@H]1O [Kylo-0603]
SHG fibrosis percentage ([1]; 0.1 mg/kg): 2.92% | percentage of steatosis ([1]; 0.1 mg/kg): 5.07% | SHG fibrosis percentage ([1]; 0.3 mg/kg): 2.12% | percentage of steatosis ([1]; 0.3 mg/kg): 4.39% | SHG fibrosis percentage ([1]; 1 mg/kg): 2.16% | percentage of steatosis ([1]; 1 mg/kg): 4.19% | SHG fibrosis percentage ([1]; 3 mg/kg): 2.03% | percentage of steatosis ([1]; 3 mg/kg): 2.22% | reduction of steatosis vs control group ([1]; 10 mg/kg): 90% | SHG fibrosis percentage ([1]; 10 mg/kg): 1.86% | half-life at 2 μM [2]: 5.93 h | pathological changes ([3]; 182 days, maximum dose 1.5 mg/kg/day, 8-week recovery): only mild Kylo-0603-related pathological changes | perturbations of the hypothalamic-pituitary-thyroid (HPT) axis ([3]; Sprague-Dawley rats): no perturbations | NOAEL at 182 day ([3]; Sprague-Dawley, rat, in vivo, 1.5 mg/kg/day, 182-day study, SD rats, read-out: no-observed-adverse-effect level (NOAEL)): 1.5 mg/kg/day | plasma stability [4]: stable | plasma stability [5]: stable | plasma stability [6]: stable | half-life at 2 μM [7]: > 6.21 h | perturbations of the hypothalamic-pituitary-thyroid (HPT) axis ([8]; cynomolgus monkeys): no perturbations | macroscopic lesions or histopathological changes ([8]; oral 0.5, 1 and 5 mg/kg per day, 28 days, 56-day recovery): no macroscopic lesions or histopathological changes
